From ChEMBL document CHEMBL4308897, “Antileishmanial activity and cytotoxicity of ent-beyerene diterpenoids” (Bioorg Med Chem, 2019)
Active and inactive are the calls of the source.

How the values were obtained:
[1] = Renal toxicity in golden hamster infected with Leishmania (Viannia) braziliensis HMOM/COL/88/UA301-EGFP assessed as infiltration of lymphocytes at 200 ug administered intralesionally twice per week for 4 weeks measured 90 days post last dose by histopathological analysis; design: species or system Mesocricetus auratus; conditions: in vivo, other, 2160 h
[2] = Hepatotoxicity in golden hamster infected with Leishmania (Viannia) braziliensis HMOM/COL/88/UA301-EGFP assessed as vacuolar degeneration at 200 ug administered intralesionally twice per week for 4 weeks measured 90 days post last dose by histopathological analysis; assay type: toxicity, Mesocricetus auratus; conditions: in vivo, other, 2160 h
[3] = Hepatotoxicity in golden hamster infected with Leishmania (Viannia) braziliensis HMOM/COL/88/UA301-EGFP assessed as external stress condition induced changes at 200 ug administered intralesionally twice per week for 4 weeks measured 90 days post last dose by histopathological analysis; assay type: toxicity, Mesocricetus auratus; conditions: in vivo, other, 2160 h
[4] = Renal toxicity in golden hamster infected with Leishmania (Viannia) braziliensis HMOM/COL/88/UA301-EGFP assessed as turbid degeneration at 200 ug administered intralesionally twice per week for 4 weeks measured 90 days post last dose by histopathological analysis; design: species or system Mesocricetus auratus; conditions: in vivo, other, 2160 h
[5] = Toxicity in golden hamster infected with Leishmania (Viannia) braziliensis HMOM/COL/88/UA301-EGFP assessed as effect on serum creatinine level at 200 ug administered intralesionally twice per week for 4 weeks measured day 8 post last treatment; design: species or system Mesocricetus auratus; conditions: in vivo, other, 672 h
[6] = Hepatotoxicity in golden hamster infected with Leishmania (Viannia) braziliensis HMOM/COL/88/UA301-EGFP assessed as hyperplasia at 200 ug administered intralesionally twice per week for 4 weeks measured 90 days post last dose by histopathological analysis; assay type: toxicity, Mesocricetus auratus; conditions: in vivo, other, 2160 h
[7] = Hepatotoxicity in golden hamster infected with Leishmania (Viannia) braziliensis HMOM/COL/88/UA301-EGFP assessed as hemosiderin pigmentation at 200 ug administered intralesionally twice per week for 4 weeks measured 90 days post last dose by histopathological analysis; assay type: toxicity, Mesocricetus auratus; conditions: in vivo, other, 2160 h
[8] = Hepatotoxicity in golden hamster infected with Leishmania (Viannia) braziliensis HMOM/COL/88/UA301-EGFP assessed as infiltration of lymphocytes at 200 ug administered intralesionally twice per week for 4 weeks measured 90 days post last dose by histopathological analysis; assay type: toxicity, Mesocricetus auratus; conditions: in vivo, other, 2160 h
[9] = Renal toxicity in golden hamster infected with Leishmania (Viannia) braziliensis HMOM/COL/88/UA301-EGFP assessed as vacuolar degeneration at 200 ug administered intralesionally twice per week for 4 weeks measured 90 days post last dose by histopathological analysis; design: species or system Mesocricetus auratus; conditions: in vivo, other, 2160 h
[10] = Hepatotoxicity in golden hamster infected with Leishmania (Viannia) braziliensis HMOM/COL/88/UA301-EGFP assessed as infiltration of macrophages at 200 ug administered intralesionally twice per week for 4 weeks measured 90 days post last dose by histopathological analysis; assay type: toxicity, Mesocricetus auratus; conditions: in vivo, other, 2160 h
[11] = Renal toxicity in golden hamster infected with Leishmania (Viannia) braziliensis HMOM/COL/88/UA301-EGFP assessed as infiltration of plasma cells at 200 ug administered intralesionally twice per week for 4 weeks measured 90 days post last dose by histopathological analysis; design: species or system Mesocricetus auratus; conditions: in vivo, other, 2160 h
[12] = Hepatotoxicity in golden hamster infected with Leishmania (Viannia) braziliensis HMOM/COL/88/UA301-EGFP assessed as congestion at 200 ug administered intralesionally twice per week for 4 weeks measured 90 days post last dose by histopathological analysis; assay type: toxicity, Mesocricetus auratus; conditions: in vivo, other, 2160 h
[13] = Renal toxicity in golden hamster infected with Leishmania (Viannia) braziliensis HMOM/COL/88/UA301-EGFP assessed as fibrosis at 200 ug administered intralesionally twice per week for 4 weeks measured 90 days post last dose by histopathological analysis; design: species or system Mesocricetus auratus; conditions: in vivo, other, 2160 h
[14] = Toxicity in golden hamster infected with Leishmania (Viannia) braziliensis HMOM/COL/88/UA301-EGFP assessed as effect on serum BUN level at 200 ug administered intralesionally twice per week for 4 weeks measured day 8 post last treatment; design: species or system Mesocricetus auratus; conditions: in vivo, other, 672 h
[15] = Toxicity in golden hamster infected with Leishmania (Viannia) braziliensis HMOM/COL/88/UA301-EGFP assessed as effect on serum alanine aminotransferase level at 200 ug administered intralesionally twice per week for 4 weeks measured day 8 post last treatment; design: species or system Mesocricetus auratus; conditions: in vivo, other, 672 h
[16] = Renal toxicity in golden hamster infected with Leishmania (Viannia) braziliensis HMOM/COL/88/UA301-EGFP assessed as edema at 200 ug administered intralesionally twice per week for 4 weeks measured 90 days post last dose by histopathological analysis; design: species or system Mesocricetus auratus; conditions: in vivo, other, 2160 h
[17] = Toxicity in golden hamster infected with Leishmania (Viannia) braziliensis HMOM/COL/88/UA301-EGFP assessed as change in body weight at 200 ug administered intralesionally twice per week for 4 weeks measured up to 90 days post last dose; design: species or system Mesocricetus auratus; conditions: in vivo, other
[18] = Cytotoxicity against human U937 cells after 72 hrs by MTT assay; assay type: cell-based, U-937; conditions: read-out: LC50
[19] = Hepatotoxicity in golden hamster infected with Leishmania (Viannia) braziliensis HMOM/COL/88/UA301-EGFP assessed as vacuolar degeneration at 2.6% administered topically as cream formulation for 20 days measured 90 days post last dose by histopathological analysis; assay type: toxicity, Mesocricetus auratus; conditions: in vivo, topical_or_ocular, 2160 h
[20] = Renal toxicity in golden hamster infected with Leishmania (Viannia) braziliensis HMOM/COL/88/UA301-EGFP assessed as vacuolar degeneration at 2.6% administered topically as cream formulation for 20 days measured 90 days post last dose by histopathological analysis; design: species or system Mesocricetus auratus; conditions: in vivo, topical_or_ocular, 2160 h
Leishmania braziliensis [21] = experiment: Antileishmanial activity against Leishmania (Viannia) braziliensis HMOM/COL/88/UA301-EGFP infected in golden hamster assessed as clinical failure at 2.6% administered topically as cream formulation for 20 days measured 3 months post last dose relative to control; assay type: functional
Syrian golden hamster [22] = experiment: Antiinflammatory activity in golden hamster infected with Leishmania (Viannia) braziliensis HMOM/COL/88/UA301-EGFP assessed as re-epithelialization in skin at 2.6% administered topically as cream formulation for 20 days and measured 3 months post last treatment by histopathological analysis; assay type: functional, organism-based; conditions: Mesocricetus auratus
Syrian golden hamster [23] = experiment: Antiinflammatory activity in golden hamster infected with Leishmania (Viannia) braziliensis HMOM/COL/88/UA301-EGFP assessed as migration of macrophages in skin at 2.6% administered topically as cream formulation for 20 days and measured 3 months post last treatment by histopathological analysis; assay type: functional, organism-based; conditions: Mesocricetus auratus
Syrian golden hamster [24] = experiment: Antiinflammatory activity in golden hamster infected with Leishmania (Viannia) braziliensis HMOM/COL/88/UA301-EGFP assessed as migration of plasmocytes in skin at 2.6% administered topically as cream formulation for 20 days and measured 3 months post last treatment by histopathological analysis; assay type: functional, organism-based; conditions: Mesocricetus auratus
[25] = Hepatotoxicity in golden hamster infected with Leishmania (Viannia) braziliensis HMOM/COL/88/UA301-EGFP assessed as hemosiderin pigmentation at 2.6% administered topically as cream formulation for 20 days measured 90 days post last dose by histopathological analysis; assay type: toxicity, Mesocricetus auratus; conditions: in vivo, topical_or_ocular, 2160 h
[26] = Hepatotoxicity in golden hamster infected with Leishmania (Viannia) braziliensis HMOM/COL/88/UA301-EGFP assessed as infiltration of lymphocytes at 2.6% administered topically as cream formulation for 20 days measured 90 days post last dose by histopathological analysis; assay type: toxicity, Mesocricetus auratus; conditions: in vivo, topical_or_ocular, 2160 h
[27] = Hepatotoxicity in golden hamster infected with Leishmania (Viannia) braziliensis HMOM/COL/88/UA301-EGFP assessed as congestion at 2.6% administered topically as cream formulation for 20 days measured 90 days post last dose by histopathological analysis; assay type: toxicity, Mesocricetus auratus; conditions: in vivo, topical_or_ocular, 2160 h
Syrian golden hamster [28] = experiment: Antiinflammatory activity in golden hamster infected with Leishmania (Viannia) braziliensis HMOM/COL/88/UA301-EGFP assessed as migration of lymphocytes in skin at 2.6% administered topically as cream formulation for 20 days and measured 3 months post last treatment by histopathological analysis; assay type: functional, organism-based; conditions: Mesocricetus auratus
[29] = Selectivity index, ratio of LC50 for human U937 cells to EC50 for Leishmania (Viannia) braziliensis HMOM/COL/88/UA301-EGFP intracellular amastigotes infected in human U937 cells; assay type: toxicity, cell-based; conditions: read-out: Selectivity Index
Leishmania braziliensis [30] = experiment: Antileishmanial activity against Leishmania (Viannia) braziliensis HMOM/COL/88/UA301-EGFP infected in golden hamster assessed as cure rate at 2.6% administered topically as cream formulation for 20 days measured 3 months post last dose relative to control; assay type: functional
Leishmania braziliensis [31] = experiment: Antileishmanial activity against Leishmania (Viannia) braziliensis HMOM/COL/88/UA301-EGFP intracellular amastigotes infected in human U937 cells after 72 hrs by flow cytometric analysis; assay type: functional, organism-based; conditions: HMOM/COL/88/UA301, U-937, 72 h
Leishmania braziliensis [32] = experiment: Antileishmanial activity against Leishmania (Viannia) braziliensis HMOM/COL/88/UA301-EGFP infected in golden hamster assessed as clinical improvement at 2.6% administered topically as cream formulation for 20 days measured 3 months post last dose relative to control; assay type: functional
Leishmania braziliensis [33] = experiment: Antileishmanial activity against Leishmania (Viannia) braziliensis HMOM/COL/88/UA301-EGFP infected in golden hamster assessed as relapse at 2.6% administered topically as cream formulation for 20 days measured 3 months post last dose relative to control; assay type: functional
[34] = Toxicity in golden hamster infected with Leishmania (Viannia) braziliensis HMOM/COL/88/UA301-EGFP assessed as effect on serum BUN level at 2.6% administered topically as cream formulation for 20 days and measured day 8 post last treatment; design: species or system Mesocricetus auratus; conditions: in vivo, topical_or_ocular, 480 h
[35] = Toxicity in golden hamster infected with Leishmania (Viannia) braziliensis HMOM/COL/88/UA301-EGFP assessed as change in body weight at 2.6% administered topically as cream formulation for 20 days measured up to 90 days post last dose; design: species or system Mesocricetus auratus; conditions: in vivo, topical_or_ocular
[36] = Hepatotoxicity in golden hamster infected with Leishmania (Viannia) braziliensis HMOM/COL/88/UA301-EGFP assessed as infiltration of macrophages at 2.6% administered topically as cream formulation for 20 days measured 90 days post last dose by histopathological analysis; assay type: toxicity, Mesocricetus auratus; conditions: in vivo, topical_or_ocular, 2160 h
[37] = Toxicity in golden hamster infected with Leishmania (Viannia) braziliensis HMOM/COL/88/UA301-EGFP assessed as effect on serum alanine aminotransferase level at 2.6% administered topically as cream formulation for 20 days and measured day 8 post last treatment; design: species or system Mesocricetus auratus; conditions: in vivo, topical_or_ocular, 480 h
[38] = Toxicity in golden hamster infected with Leishmania (Viannia) braziliensis HMOM/COL/88/UA301-EGFP assessed as effect on serum creatinine level at 2.6% administered topically as cream formulation for 20 days and measured day 8 post last treatment; design: species or system Mesocricetus auratus; conditions: in vivo, topical_or_ocular, 480 h

MEGLUMINE ANTIMONATE
Toxic: Activity [1] | Activity [2] | Activity [3] | Activity [4] | Activity [6] | Activity [7] | Activity [8] | Activity [9] | Activity [10] | Activity [11] | Activity [12] | Activity [13] | Activity [16] | Activity [17]
Non-Toxic: Activity [5] | Activity [14] | Activity [15]

C[C@]12C=C[C@@]3(CC[C@@H]4[C@@](C)(CO)CCC[C@@]4(C)[C@@H]3CC1)C2
Non-Toxic: Activity [34] | Activity [35] | Activity [37] | Activity [38]
7.7: selectivity ratio [29]
active: Activity (Syrian golden hamster [22]) | Activity (Syrian golden hamster [23]) | Activity (Syrian golden hamster [24]) | Activity (Syrian golden hamster [28])
0%: Activity (Leishmania braziliensis [32])
16.7%: Activity (Leishmania braziliensis [33])
33.3%: Activity (Leishmania braziliensis [21])
18.1 µM: EC50 (Leishmania braziliensis [31])
122 µM: CC50 at 72 h [18]
50%: Activity (Leishmania braziliensis [30])
Toxic: Activity [19] | Activity [20] | Activity [25] | Activity [26] | Activity [27] | Activity [36]
